The text below walks through data of patent US6683090B1 (priority 1999, dated 2004).

The experiment concerns the target α7 nAChR subtype (Rattus norvegicus, UniProt Q05941). In kind it is binding. As to conditions: read-out: KD of radioligand.

Sequence of α7 nAChR subtype (Q05941 23-502 limits assumed): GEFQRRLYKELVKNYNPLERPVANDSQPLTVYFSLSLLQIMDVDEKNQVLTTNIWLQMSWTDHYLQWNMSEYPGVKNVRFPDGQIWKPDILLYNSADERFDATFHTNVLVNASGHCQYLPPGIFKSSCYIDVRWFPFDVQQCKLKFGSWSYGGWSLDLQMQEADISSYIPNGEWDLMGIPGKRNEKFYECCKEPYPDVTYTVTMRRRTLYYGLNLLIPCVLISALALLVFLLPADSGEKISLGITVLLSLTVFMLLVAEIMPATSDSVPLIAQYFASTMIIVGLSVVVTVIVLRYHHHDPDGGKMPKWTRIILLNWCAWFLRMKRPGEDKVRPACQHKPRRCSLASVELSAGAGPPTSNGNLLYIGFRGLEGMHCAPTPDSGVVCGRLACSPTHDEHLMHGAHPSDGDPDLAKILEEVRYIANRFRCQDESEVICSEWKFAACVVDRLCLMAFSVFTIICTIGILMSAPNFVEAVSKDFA

Usually Kd stands for the constant that tells how readily two partners part at equilibrium. Regarding 125I-α-Bungarotoxin [^125I-α-BTX], the equilibrium dissociation constant (Kd) amounted to 1.67 nM.
